Experimental findings from ChEMBL document CHEMBL5385867, “2-Phenoxy-3, 4'-bipyridine derivatives inhibit AURKB-dependent mitotic processes by disrupting its localization” (Eur J Med Chem, 2023) are described below.

For one assay, the target named is Tubulin (Homo sapiens) (UniProt P68371+Q9H4B7+P0DPH7+P68366+Q13509+Q71U36+P04350+Q3ZCM7+P07437+P68363+Q9BQE3+Q6PEY2+Q13885+Q9BVA1+Q9BUF5). Description: Stabilization of microtubule in human RPE-MYC cells transfected with BCL2 assessed as misaligned chromosomes in metaphase cells at 50 nM measured after 24 hrs by immunofluorescence staining based analysis. Format: cell-based.

Assay [1] is described as follows: Induction of mitotic arrest in human RPE-MYC cells transfected with BCL2 assessed as mitotic index at 50 nM measured after 24 hrs by DAPI staining based bright field microscopic analysis (reference value: 3.5%). It counts as functional.
Assay [2] in a line: Induction of mitotic arrest in human RPE-MYC cells transfected with BCL2 assessed as mitotic index at 2 ug/ml measured after 24 hrs by DAPI staining based bright field microscopic analysis (reference value: 3.5%). To be noted: dose 2 µg/ml. Format: functional.
Assay [3] relates to RPE. Nature of the assay: Inhibition of actin polymerization in human RPE-MYC cells transfected with BCL2 assessed as chromosome misalignment in metaphase at 2 ug/ml measured after 24 hrs by immunofluorescence staining based analysis. Format: cell-based. The note with it: dose 2.0 µg/ml.
The test system of assay [4] is RPE. Description: Inhibition of actin polymerization in human RPE-MYC cells transfected with BCL2 assessed as lagging chromosomes in anaphase at 2 ug/ml measured after 24 hrs by immunofluorescence staining based analysis. To be noted: dose 2.0 µg/ml. Format: cell-based.
The test system of assay [5] is RPE. Description: Inhibition of actin polymerization in human RPE-MYC cells transfected with BCL2 assessed as accumulation of polyploid cells with multilobular nuclei at 2 ug/ml measured after 48 hrs by immunofluorescence staining based analysis. It counts as cell-based. To be noted: dose 2.0 µg/ml.
The target in assay [6] is T1, Aurora kinase A (Homo sapiens) (UniProt O14965).
T1 sequence (whole entry): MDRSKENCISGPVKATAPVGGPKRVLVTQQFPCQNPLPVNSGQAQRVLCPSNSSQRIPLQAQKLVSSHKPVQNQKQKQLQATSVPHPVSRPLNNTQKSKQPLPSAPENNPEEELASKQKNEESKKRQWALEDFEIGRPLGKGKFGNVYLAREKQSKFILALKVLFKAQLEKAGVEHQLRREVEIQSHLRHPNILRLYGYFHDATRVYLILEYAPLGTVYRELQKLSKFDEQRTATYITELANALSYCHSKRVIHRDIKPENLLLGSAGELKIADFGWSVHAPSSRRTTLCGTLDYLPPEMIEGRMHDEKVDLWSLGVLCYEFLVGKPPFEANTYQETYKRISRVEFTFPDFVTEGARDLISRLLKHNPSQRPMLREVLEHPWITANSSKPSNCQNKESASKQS
Nature of the assay: Inhibition of Aurora kinase A in human RPE-MYC cells transfected with BCL2 assessed as inhibition of protein autophosphorylation at Thr288 residue at 160 nM measured after 6 hrs by immunofluorescence staining based analysis. It counts as cell-based.

For assay [7], the target named is Aurora kinase B (Homo sapiens) (UniProt Q96GD4). Nature of the assay: Inhibition of Aurora kinase B in human RPE-MYC cells transfected with BCL2 assessed as inhibition of histone H3 phosphorylation at Ser10 residue at >5 nM measured after 6 hrs by immunofluorescence staining based analysis. It counts as cell-based.
Chain of Aurora kinase B (Homo sapiens) (Q96GD4 whole entry): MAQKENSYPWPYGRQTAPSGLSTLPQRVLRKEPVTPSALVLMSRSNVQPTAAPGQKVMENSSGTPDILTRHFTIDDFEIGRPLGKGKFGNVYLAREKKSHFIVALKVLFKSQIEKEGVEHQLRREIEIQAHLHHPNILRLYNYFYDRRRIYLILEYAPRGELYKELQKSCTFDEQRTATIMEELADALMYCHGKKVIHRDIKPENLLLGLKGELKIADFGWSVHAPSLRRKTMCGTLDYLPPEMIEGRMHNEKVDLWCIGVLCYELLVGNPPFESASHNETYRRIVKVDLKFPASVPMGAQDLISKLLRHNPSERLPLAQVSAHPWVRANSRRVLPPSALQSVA
Assay [8] can be described thus: Induction of mitotic arrest in human RPE-MYC cells transfected with BCL2 assessed as mitotic index at 2.5 nM measured after 24 hrs by DAPI staining based bright field microscopic analysis (reference value: 3.5%). It counts as functional.
Assay [9] has as its target Aurora kinase B (Homo sapiens) (UniProt Q96GD4). Description: Disruption of AURKB localization in human RPE-MYC cells transfected with BCL2 assessed as lagging chromosomes in anaphase cells at 2.5 nM measured after 24 hrs by immunofluorescence staining based analysis. Format: cell-based.
Assay [10] deals with T1, Aurora kinase A (Homo sapiens). Nature of the assay: Inhibition of Aurora kinase A in human RPE-MYC cells transfected with BCL2 assessed as inhibition of protein autophosphorylation at Thr288 residue at 2.5 nM measured after 6 hrs by immunofluorescence staining based analysis. It counts as cell-based.
The target in assay [11] is Aurora kinase B (Homo sapiens) (UniProt Q96GD4). Description: Disruption of AURKB localization in human RPE-MYC cells transfected with BCL2 assessed as misaligned chromosomes in metaphase-like cells at 2.5 nM measured after 24 hrs by immunofluorescence staining based analysis. It counts as cell-based.
Assay [12] addresses T1, Aurora kinase A (Homo sapiens). Nature of the assay: Inhibition of Aurora kinase A in human NCI-H23 cells transfected with BCL2 assessed as inhibition of protein autophosphorylation at Thr288 residue at 2.5 nM measured after 6 hrs by immunofluorescence staining based analysis. It counts as cell-based.
Assay [13] deals with Aurora kinase B (Homo sapiens) (UniProt Q96GD4). Description: Inhibition of Aurora kinase B in human RPE-MYC cells transfected with BCL2 assessed as inhibition of histone H3 phosphorylation at Ser10 residue at 2.5 nM measured after 6 hrs by immunofluorescence staining based analysis. Format: cell-based.
Assay [14] shares this target. Nature of the assay: Disruption of AURKB localization in human RPE-MYC cells transfected with BCL2 assessed as accumulation of polyploid cells with multilobular nuclei at 2.5 nM measured after 48 hrs by immunofluorescence staining based analysis. It counts as cell-based.
Assay [15] has the same target. Nature of the assay: Inhibition of Aurora kinase B in human NCI-H23 cells transfected with BCL2 assessed as inhibition of histone H3 phosphorylation at Ser10 residue at 2.5 nM measured after 6 hrs by immunofluorescence staining based analysis. It counts as cell-based.
Assay [16] shares this target. Description: Disruption of AURKB localization during anaphase in human NCI-H23 cells at 2.5 nM measured after 24 hrs by immunofluorescence staining based analysis. It counts as cell-based.

Calls of active or inactive are those of the source. The rule behind the calls is not given here.

`CC(=O)O[C@H]1C(=O)[C@@]2(C)[C@H]([C@H](OC(=O)c3ccccc3)[C@]3(O)C[C@H](OC(=O)[C@H](O)[C@@H](NC(=O)c4ccccc4)c4ccccc4)C(C)=C1C3(C)C)[C@]1(OC(C)=O)CO[C@@H]1C[C@@H]2O` [PACLITAXEL]: the outcome at Tubulin (Homo sapiens) was inactive. The Activity in assay [1] turned out to be 97.3%.

For `C=C1[C@@H](C)[C@H]2[C@H](Cc3ccccc3)NC(=O)[C@]23OC(=O)/C=C/[C@H](O)CCC[C@@H](C)C/C=C/[C@H]3[C@@H]1O` [CYTOCHALASIN B], the Activity in assay [2] is given as 2.7%. The inhibition result in the assay on RPE [3] and in the assay on RPE [4] was “inactive” throughout. Also, the inhibition result in the assay on RPE [5] is “Active”.

As to `Cc1csc(-c2nnc(Nc3ccc(Oc4ncccc4-c4ccnc(N)n4)cc3)c3ccccc23)c1` [AMG-900], the inhibition in assay [6] was 100%. The inhibition result in assay [7] was “Active”. Also, the Activity in assay [8] stood at 7.8%. Besides, the outcome in [9], in assay [11], in assay [14] and in [16] was Active. Moreover, the inhibition entry in [10], in assay [12], in [13] and in assay [15] was “inactive” each time.
